Results as given in patent US5376679A, “Bicyclic or tricyclic biocidal compounds” (Shell Internationale Research Maatschappij B.V., priority 1988, dated 1994).
In brackets after ≈: the same amount, converted by molar mass.

Experiments:
Leptosphaeria nodorum = assay: Direct antisporulant activity against wheat leafspot (Ln); assay type: in vivo; set-up: scale not given here; details: foliar spray, 1 kg/ha; activity grade 1 or 2, not defined
Experimental: (e) Activity Against Wheat Leafspot (Leptosphaeria nodorum; Ln) The test is a direct antisporulant one, using a foliar spray. Leaves of wheat plants ([…]), at the single leaf stage, are inoculated by spraying with an aqueous suspension containing 8×10^5 spores/mi. The inoculated plants are kept for 24 hours in a high humidity compartment prior to treatment. […] After drying, the plants are kept for 5 days under normal glasshouse conditions, followed by assessment. Assessment is based on the percentage of leaf area covered by sporulation compared with that on leaves of control plants.

[1] = tested on: Pseudocercosporella herpotrichoides; assay: In vitro activity against wheat eyespot (Ph); assay type: cell-based; set-up: Ph: activity against wheat eyespot: scale not given here; details: in vitro, 100 ppm in agar, 11 days; activity grade 1 or 2, not defined
Experimental: (c) Activity Against Wheat Eyespot (Pseudocercosporella herpotrichoides; Ph)
The test is an in vitro one. Samples are prepared wherein 0.7 mls solution containing 2 mg active material dissolved in acetone is evenly dispersed in 20 ml molten half-strength potato dextrose agar (formed by dissolving 2 g potato extract, 10 g dextrose and 7.5 g agar in 1 liter of water and sterilising for 15 minutes and 121° C.) and the resulting 20 ml portions are allowed to set in 9 cm petri dishes. The concentration of active material in the resulting samples is 100 ppm. Upon setting, two plugs of 5 mm diameter taken from the advancing edge of a stock plate of a 3 to 4 week old culture of P.herpotrichoides on full strength potato dextrose agar, incubated at 20°-22° C. in darkness, are placed, equally spaced on the surface of each sample, mycelial side uppermost. The samples are incubated for 11 days at 20°-22° C. in darkness before assessment. Diametric growth is measured with the width of the plug subtracted and results compared with growth on a sample wherein 0.7 ml acetone containing no active material is dispersed in 20 ml half-strength potato agar.

Fusarium culmorum = assay: Activity against seedling wheat blight, soil drench (Fs); assay type: in vivo; set-up: scale not given here; details: 10 kg/ha, 21 days, activity grade 1 or 2, not defined
Experimental: (d) Activity Against Seedling Wheat Blight (Fusarium culmorum; Fs)
The test is an anti-sporulant one using a soil drench. Surface sterilised wheat seeds (var Waggoner) are inoculated by soaking in an aqueous suspension containing 7×10^5 spores/ml (60 mg seed per 80 ml suspension) at 22° C. for 6 hours. The seeds are then sown in pots (5 per pot) in sand at a depth of 1 cm. 1 day after inoculation and planting the active material is applied at a rate of 10 kg/ha by pouring on a soil drench (concentration 0.36 g/l active material in 12% v/v acetone/water) evenly over the sand. The pots are then transferred to a glasshouse, kept at 25° C. and watered sparingly. 21 days after inoculation the resulting seedlings are removed from the pots and their roots are gently washed. Visual assessment is made based on lesion development on stem base and upper roots in comparison with control seedlings.

Plasmopara viticola = assay: Direct protectant activity against vine downy mildew (Pvp); assay type: in vivo; set-up: Pvp: direct protectant activity against vine downy mildew: scale not given here; details: foliar spray, 1 kg/ha; activity grade 1 or 2, not defined
Source text: (a) Direct Protectant Activity Against Vine Downy Mildew (Plasmopara viticola; Pvp)
The test is a direct protectant one, using a foliar spray. The lower surfaces of leaves of whole vine plants (cv Cabernet Sauvignon) are sprayed with a solution of active material in 1:1 v/v water/acetone containing 0.04% w "Triton X-155" (trade mark) (octylphenol polyoxyethylene surfactant), at a dosage of 1 kilogram of active material per hectare using a track sprayer which delivers 620 liters/ha, and after a subsequent 24 hours under normal glasshouse conditions the lower surfaces of the leaves are inoculated by spraying with an aqueous solution containing 10^4 zoosporangia/ml. The inoculated plants are kept for 24 hours in a high humidity compartment, 5 days under normal glasshouse conditions and then returned for a further 24 hours to high humidity. Assessment is based on the percentage of leaf area covered by sporulation compared with that on control leaves.

Puccinia Recondita = assay: Direct protectant activity against wheat brown rust (Pr); assay type: in vivo; set-up: scale not given here; details: foliar spray, 1 kg/ha, 10 days; activity grade 1 or 2, not defined
Experimental: (i) Activity Against Wheat Brown Rust (Puccinia Recondita; Pr) The test is a direct protectant one using a foliar spray. […] The plants are then sprayed with the test compound at a dosage of 1 kg/ha using a track sprayer as described under (a). Test compounds are applied as solutions or suspensions in a mixture of acetone and water (50:50 v/v) containing 0.04% surfactant ("TWEEN 20"--Trade Mark). 18-24 hours after treatment, the seedlings are inoculated by spraying the plants from all sides with an aqueous spore suspension containing about 10^5 spores/ml. For 18 hours after inoculation, the plants are kept in high humidity conditions at a temperature of 20°-22° C. Thereafter, the plants are kept in ambient glasshouse conditions, that is, in moderate relative humidity and at a temperature of 20° C. The disease is assessed 10 days after inoculation on the basis of the percentage of the plant covered by sporulating pustules compared with that on the control plants.

Alternaria Solani = assay: Direct protectant activity against tomato early blight (As); assay type: in vivo; set-up: As: activity against tomato early blight: scale not given here; details: foliar spray as under (a), 8 days; activity grade 1 or 2, not defined; note: dose 1000 g/ha
Experimental: (g) Activity Against Tomato Early Blight (Alternaria Solani; As). The test is a direct protectant one using a foliar spray. The upper surfaces of leaves of young tomato plants are sprayed with a solution of active material as described in (a) above. After 24 hours under normal glasshouse conditions, the upper surfaces of the leaves are inoculated by spraying with an aqueous suspension containing 10^4 spores/ml. The inoculated plants are kept for 72 hours in a high humidity compartment and are then removed to lower humidity (50-70% relative humidity). Assessment is made 8 days after inoculation.

[2] = tested on: Erysiphe graminis f.sp. hordei; assay: Direct antisporulant activity against barley powdery mildew (Eg); assay type: in vivo; set-up: scale not given here; details: foliar spray, 1 kg/ha; activity grade 1 or 2, not defined
Source text: (f) Activity Against Barley Powdery Mildew (Erysiphe graminis f.sp. hordei; Eg) The test is a direct antisporulant one, using a foliar spray. Leaves of barley seedlings, cultivar Golden Promise, are inoculated by dusting with mildew conidia one day prior to treatment with the test compound. The inoculated plants are kept overnight at glasshouse ambient temperature and humidity prior to treatment. […] After drying, plants are returned to a compartment at ambient temperature and humidity for up to 7 days, followed by assessment. Assessment is based on the percentage of leaf area covered by sporulation compared with that on leaves of control plants.

Saccharomyces cerevisiae = assay: Minimum inhibitory concentration, yeast (Sc); assay type: cell-based, Saccharomyces cerevisiae (ATCC 9763); details: 30° C., 24 and 72 hours
Experimental: Inocula of S. cerevisiae were prepared as for S. aureus, B. subtilis and E. coli, but using yeast malt broth in place of the typtone soya broth. The yeast malt broth was prepared by suspending 3 g yeast extract, 3 g malt extract, 5 g peptone and 10 g dextrose in 1 liter of distilled water, warming to achieve solution and sterilising by autoclaving at 121° C. for 15 minutes.
(§1) Test procedures were as follows:
(§2) (ii) Dilution Series for Other Test Bacteria, Yeast and Filamentous Fungi
(§3) Dilution series from the stock solution of each compound were prepared in sterile distilled water. These contained 50, 100, 500 and 1000 ppm compound. To duplicate wells of a compartmentalised square petri dish 0.3 ml of each test compound concentration was added together with 2.7 ml of one of the microbial inocula described above. This gave final concentrations of the test compound of 5, 10, 50 and 100 ppm.
(§4) After incubation, in the dark, at 30° C. the wells were examined for the presence or absence of growth. Bacterial and yeast cultures were examined after 24 hours and 72 hours incubation and the fungi cultures after 3, 7 and 10 days.
(§5) By means of the above tests minimum inhibitory concentrations were determined for the various test compounds.

Botrytis cinerea = assay: Direct protectant activity against vine grey mould (Bcp); assay type: in vivo; details: foliar spray, 1 kg/ha; activity grade 1 or 2, not defined
Source text: (b) Direct Protectant Activity Against Vine Grey Mould (Botrytis cinerea; Bcp) The test is a direct protectant one using a foliar spray and is effected as described under (a), with the difference that the leaves are inoculated by spraying with an aqueous solution containing 10^5 conidia/ml.

Chaetomium globosum = assay: Minimum inhibitory concentration, Chaetomium globosum (Chg); assay type: cell-based; details: 30° C., 3, 7 and 10 days
Experimental: (§6) Inocula of the fungi Aspergillus niger, Cladosporium resinae and Chaetomium globosum were prepared containing 5×10^5 conidia/ml in a potato dextrose broth. The potato dextrose broth was prepared by suspending 4 g potato extract and 20 g dextrose in 1 liter of distilled water, warming to achieve solution, separating into aliquots and sterilising by autoclaving at 121° C. for 15 minutes.
as §1, §2, §3, §4, §5

Escherichia coli = assay: Minimum inhibitory concentration, Escherichia coli (Ec); assay type: cell-based, Escherichia coli (NCIB 9517); details: 30° C., 24 and 72 hours
Experimental: (§7) In respect of S. aureus, B. subtilis and E. coli, the microorganisms were cultured in 50 ml aliquots of a tryptone soya broth in 250 ml conical flasks at 30° C. on a rotary shaker at 200 rpm for 24 hours. Tryptone soya broth was prepared by adding 17 g pancreatic digest of casein, 3 g […] digest of soyabean meal, 5 g of sodium chloride, 2.5 g of dipotassium hydrogen phosphate and 2.5 g of dextrose to 1 liter of distilled water, mixing and sterilising by autoclaving at 121° C. for 15 minutes. 1 ml aliquots of the resulting cultures were mixed with 99 ml of fresh tryptone soya broth and used as inocula for tests. […] Test procedures were as follows: (ii) Dilution Series for Other Test Bacteria, Yeast and Filamentous Fungi Dilution series from the stock solution of each compound were prepared in sterile distilled water. These contained 50, 100, 500 and 1000 ppm compound. To duplicate wells of a compartmentalised square petri dish 0.3 ml of each test compound concentration was added together with 2.7 ml of one of the microbial inocula described above. […] After incubation, in the dark, at 30° C. the wells were examined for the presence or absence of growth. Bacterial and yeast cultures were examined after 24 hours and 72 hours incubation and the fungi cultures after 3, 7 and 10 days. By means of the above tests minimum inhibitory concentrations were determined for the various test compounds.

Cladosporium resinae = assay: Minimum inhibitory concentration, Cladosporium resinae (Cr); assay type: cell-based; details: Amorphotheca resinae, 30° C., 3, 7 and 10 days
Experimental: as §6, §1, §2, §3, §4, §5

Staphylococcus aureus = assay: Minimum inhibitory concentration, Staphylococcus aureus (Sa); assay type: cell-based, Staphylococcus aureus (NCIB 6571); details: 30° C., 24 and 72 hours
Experimental: as §7

Aspergillus niger = assay: Minimum inhibitory concentration, Aspergillus niger (An); assay type: cell-based, Aspergillus niger (CMI 17454); details: 30° C., 3, 7 and 10 days
Experimental: as §6, §1, §2, §3, §4, §5

Bacillus subtilis = assay: Minimum inhibitory concentration, Bacillus subtilis (Bs); assay type: cell-based; details: 30° C., 24 and 72 hours
Experimental: as §7

Desulfovibrio sp. = assay: Minimum inhibitory concentration, sulphate-reducing bacteria (Dsp); assay type: cell-based; details: 30° C., 2, 5 and 10 days
Experimental: The sulphate reducing bacteria Desulfovibrio sp. were cultured in a modified Postgate's Medium B for 48 hours at 30° C. and used directly as an inoculum. The modified Postgate's Medium B consisted of 0.5 g dipotassium hydrogen phosphate, 1 g ammonium chloride, 1 g sodium sulphate, 5 g sodium lactate, 1 g yeast extract, 0.1 ml thioglycolic acid, 0.1 ml ascorbic acid, 0.5 g ferrous sulphate heptahydrate, 750 ml aged seawater and 250 ml distilled water, pH adjusted to 7.8, divided into aliquots and sterilised by autoclaving at 121° C. for 15 minutes. […] Test procedures were as follows: (i) Suphate-reducing Bacteria Test Dilution Series Duplicate aliquots (9.9 ml) of dilution series from the stock solutions of each compound were prepared in a modified Postgate's Medium B described above. These contained 100 ppm compound. These were then inoculated with 0.1 ml of inoculum. After incubation at 30° C., the presence or absence of growth--as indicated by a blackening of the medium due to ferrous sulphide production--was recorded at 2, 5 and 10 days. […] By means of the above tests minimum inhibitory concentrations were determined for the various test compounds.

SMILES	Ln: activity against wheat leafspot (Leptosphaeria nodorum)	Ph: activity against wheat eyespot [1]	Fs: activity against seedling wheat blight (Fusarium culmorum)	Pvp: direct protectant activity against vine downy mildew (Plasmopara viticola)	Pr: activity against wheat brown rust (Puccinia Recondita)	As: activity against tomato early blight (Alternaria Solani)	Eg: activity against barley powdery mildew [2]	MIC (Saccharomyces cerevisiae) [µg/mL]	Bcp: direct protectant activity against vine grey mould (Botrytis cinerea)	MIC (Chaetomium globosum) [µg/mL]	MIC (Escherichia coli) [µg/mL]	MIC (Cladosporium resinae) [µg/mL]	MIC (Staphylococcus aureus) [µg/mL]	MIC (Aspergillus niger) [µg/mL]	MIC (Bacillus subtilis) [µg/mL]	MIC (Desulfovibrio sp.) [µg/mL]
Cc1cc2c(c([N+]([O-])=NC#N)c1)OC(C)(C)C2 [Example 7]	1	1	1	2	2	–	–	–	–	–	–	–	–	–	–	–
CCc1cc2cccc([N+]([O-])=NC#N)c2o1 [Example 19]	–	1	1	–	2	2	1	–	–	–	–	–	–	–	–	–
COC(=O)N=[N+]([O-])c1cc(C)cc2c1OC(C)C2 (stereo not drawn) [Example 45]	–	–	–	1	–	1	2	–	–	–	–	–	–	–	–	–
Cc1cc2c(F)ccc([N+]([O-])=NC#N)c2o1 [Example 22]	–	2	2	–	–	–	2	25 (≈ 114 µM)	1	5 (≈ 22.8 µM)	> 100	10 to 25 (≈ 45.6 to 114 µM)	> 100	10 (≈ 45.6 µM)	50 to 100 (≈ 228 to 456 µM)	50 (≈ 228 µM)
CCCCc1cc2cccc([N+]([O-])=NC#N)c2o1 [Example 20]	1	–	2	–	1	–	–	> 100	–	–	> 100	100 (≈ 411 µM)	> 100	100 (≈ 411 µM)	> 100	> 100
N#CN=[N+]([O-])c1ccc2oc3c(c2c1)CCCC3 [Example 24]	–	1	1	2	1	2	–	–	–	–	–	–	–	–	–	–
CC1(C)Cc2cccc([N+]([O-])=NC#N)c2O1 [Example 2]	–	2	2	1	–	–	–	–	2	–	–	–	–	–	–	–
N#CN=[N+]([O-])c1cccc2cc(-c3ccccc3)oc12 [Example 21]	–	–	–	–	–	–	–	–	1	–	–	–	–	–	–	–
Cc1ccc([N+]([O-])=NC#N)c2c1CC(C)(C)O2 [Example 3]	1	2	1	2	–	1	–	–	1	–	–	–	–	–	–	–
